According to patent US6143492A, “Optical molecular sensors for cytochrome P450 activity” (Aurora Biosciences Corporation, priority 1999, dated 2000):

Legend:
CYP 2D6 = CYP 2D6 (Homo sapiens, UniProt P10635); test: in vitro
Method: CYP 2D6 was incubated with 10 μM concentrations of various known inhibitors and drug substrates and residual CYP 2D6 activity assayed with the fluorogenic substrate MOBFC. The assay was performed in a 96-well plate at room temp and at a volume of 100 μl/well. 4×enzyme buffer was prepared and 25 μl was added to each well on the plate, for final assay concentrations of 3.3 mM glucose-6-phosphate, 0.4 units/ml glucose-6-phosphate dehydrogenase and 10 mM MgCl2 in 100 mM K+ phosphate, pH 8.0. […] Six consecutive 1:3 dilutions were made and 50 μl of each was added to appropriate wells on the assay plate. The CYP2D6 was diluted to a solution of 2 pmol/10 μl in 100 mM K+ phosphate and 10 μl was added to each well. 20 μl of buffer was added to each well containing standard. The drug inhibitors were allowed to pre-incubated with the CYP 2D6 enzyme for 1 hr prior to the addition of the MOBFC substrate. […] Hydroxy-trifluoro-methylcoumarin was diluted to 100 μM in K+ phosphate buffer, and seven consecutive 1:2 dilutions were made. 10 μl of each dilution was added to the appropriate wells on the plate containing 90 μl of 100 mM K+ phosphate, pH 8.0.

[1] = substrate: COc1ccc2c(C(F)(F)F)cc(=O)oc2c1; test: Kinetics of fluorogenic substrates with CYP 2D6; format: biochemical, human; settings: other: CYP 2D6

Q: For CC(C)NC[C@H](O)COc1cccc2ccccc12 (racemic) [Propanolol], which Ki (CYP 2D6; human, cyp 2d6, pH 8) is on record?
A: The Ki was > 30 µM.

Q: For CCC1C2CC3C4N(C)c5ccccc5C45CC(C2C5O)N3C1O (stereo not shown) [Amjaline], which Ki (CYP 2D6) is on record?
A: The Ki was > 30 µM.

B1: CYP 2D6 (Homo sapiens) (protein)
chain: MGLEALVPLAVIVAIFLLLVDLMHRRQRWAARYPPGPLPLPGLGNLLHVDFQNTPYCFDQLRRRFGDVFSLQLAWTPVVVLNGLAAVREALVTHGEDTADRPPVPITQILGFGPRSQGVFLARYGPAWREQRRFSVSTLRNLGLGKKSLEQWVTEEAACLCAAFANHSGRPFRPNGLLDKAVSNVIASLTCGRRFEYDDPRFLRLLDLAQEGLKEESGFLREVLNAVPVLLHIPALAGKVLRFQKAFLTQLDELLTEHRMTWDPAQPPRDLTEAFLAEMEKAKGNPESSFNDENLRIVVADLFSAGMVTTSTTLAWGLLLMILHPDVQRRVQQEIDDVIGQVRRPEMGDQAHMPYTTAVIHEVQRFGDIVPLGVTHMTSRDIEVQGFRIPKGTTLITNLSSVLKDEAVWEKPFRFHPEHFLDAQGHFVKPEAFLPFSAGRRACLGEPLARMELFLFFTSLLQHFSFSVPTGQPRPSHHGVFAFLVSPSPYELCAVPR
Q: What does the source list for B1?
A: Km [1]: 10.0 µM; kcat/Km [1]: 417 M⁻¹ s⁻¹
